Measured values as given in the kinase profiling compilation of Christmann-Franck et al. (2016).
Where “and” joins values, the source holds several entries; their conditions need not be identical. Equal values may be shown once.

Columns and labels:
Test in all cases: radiometric filter-binding kinase assay, Kinase HotSpot
Settings in all cases: compound 0.5 µM; ATP 10 µM
PRKACA (human) = PRKACA (human) (UniProt P17612)
CAMK1D (human) = CAMK1D (human) (UniProt Q8IU85)
FES (human) = FES (human) (UniProt P07332)
PAK6 (human) = PAK6 (human) (UniProt Q9NQU5)
EPHA1 (human) = EPHA1 (human) (UniProt P21709)
MET (human) = MET (human) (UniProt P08581)
GSK3A (human) = GSK3A (human) (UniProt P49840)
SYK (human) = SYK (human) (UniProt P43405)
NEK11 (human) = NEK11 (human) (UniProt Q8NG66)
MST4 (human) = MST4 (human) (UniProt Q9P289)
CDK2 CCNE1 (human) = CDK2 CCNE1 (human) (UniProt P24941+P24864)
CDK6 CCND1 (human) = CDK6 CCND1 (human) (UniProt Q00534+P24385)
MKNK2 (human) = MKNK2 (human) (UniProt Q9HBH9)
CAMK2B (human) = CAMK2B (human) (UniProt Q13554)
INSRR (human) = INSRR (human) (UniProt P14616)
PRKCD (human) = PRKCD (human) (UniProt Q05655)
MYLK (human) = MYLK (human) (UniProt Q15746)
MAPK10 (human) = MAPK10 (human) (UniProt P53779)
STK39 (human) = STK39 (human) (UniProt Q9UEW8)
EPHB2 (human) = EPHB2 (human) (UniProt P29323)
STK33 (human) = STK33 (human) (UniProt Q9BYT3)
SGK2 (human) = SGK2 (human) (UniProt Q9HBY8)
MINK1 (human) = MINK1 (human) (UniProt Q8N4C8)
WNK2 (human) = WNK2 (human) (UniProt Q9Y3S1)
PRKD1 (human) = PRKD1 (human) (UniProt Q15139)
PIM1 (human) = PIM1 (human) (UniProt P11309)
MAPKAPK5 (human) = MAPKAPK5 (human) (UniProt Q8IW41)
NEK9 (human) = NEK9 (human) (UniProt Q8TD19)
ROCK1 (human) = ROCK1 (human) (UniProt Q13464)
PLK2 (human) = PLK2 (human) (UniProt Q9NYY3)
Sequence of PLK2 (human) (Q9NYY3 whole entry, looked up): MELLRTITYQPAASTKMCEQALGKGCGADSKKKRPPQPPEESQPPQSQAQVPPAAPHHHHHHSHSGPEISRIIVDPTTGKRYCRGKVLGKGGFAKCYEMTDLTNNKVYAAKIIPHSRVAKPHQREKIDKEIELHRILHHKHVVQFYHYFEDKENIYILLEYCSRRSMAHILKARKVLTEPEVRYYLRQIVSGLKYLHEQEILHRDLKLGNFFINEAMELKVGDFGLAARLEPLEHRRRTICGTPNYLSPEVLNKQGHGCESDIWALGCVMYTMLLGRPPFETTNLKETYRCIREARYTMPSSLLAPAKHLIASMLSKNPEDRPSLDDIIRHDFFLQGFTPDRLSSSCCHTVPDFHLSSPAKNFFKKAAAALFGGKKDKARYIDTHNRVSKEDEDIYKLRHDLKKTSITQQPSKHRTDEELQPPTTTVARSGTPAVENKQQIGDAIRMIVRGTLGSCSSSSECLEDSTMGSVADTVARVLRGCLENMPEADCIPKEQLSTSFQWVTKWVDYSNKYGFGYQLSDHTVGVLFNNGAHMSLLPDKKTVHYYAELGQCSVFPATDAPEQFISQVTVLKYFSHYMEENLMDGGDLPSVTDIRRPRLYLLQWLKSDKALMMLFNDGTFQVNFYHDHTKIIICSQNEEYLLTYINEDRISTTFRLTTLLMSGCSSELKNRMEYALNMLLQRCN

EPHB4 (human) = EPHB4 (human) (UniProt P54760)
Sequence of EPHB4 (human) (P54760 whole entry, looked up): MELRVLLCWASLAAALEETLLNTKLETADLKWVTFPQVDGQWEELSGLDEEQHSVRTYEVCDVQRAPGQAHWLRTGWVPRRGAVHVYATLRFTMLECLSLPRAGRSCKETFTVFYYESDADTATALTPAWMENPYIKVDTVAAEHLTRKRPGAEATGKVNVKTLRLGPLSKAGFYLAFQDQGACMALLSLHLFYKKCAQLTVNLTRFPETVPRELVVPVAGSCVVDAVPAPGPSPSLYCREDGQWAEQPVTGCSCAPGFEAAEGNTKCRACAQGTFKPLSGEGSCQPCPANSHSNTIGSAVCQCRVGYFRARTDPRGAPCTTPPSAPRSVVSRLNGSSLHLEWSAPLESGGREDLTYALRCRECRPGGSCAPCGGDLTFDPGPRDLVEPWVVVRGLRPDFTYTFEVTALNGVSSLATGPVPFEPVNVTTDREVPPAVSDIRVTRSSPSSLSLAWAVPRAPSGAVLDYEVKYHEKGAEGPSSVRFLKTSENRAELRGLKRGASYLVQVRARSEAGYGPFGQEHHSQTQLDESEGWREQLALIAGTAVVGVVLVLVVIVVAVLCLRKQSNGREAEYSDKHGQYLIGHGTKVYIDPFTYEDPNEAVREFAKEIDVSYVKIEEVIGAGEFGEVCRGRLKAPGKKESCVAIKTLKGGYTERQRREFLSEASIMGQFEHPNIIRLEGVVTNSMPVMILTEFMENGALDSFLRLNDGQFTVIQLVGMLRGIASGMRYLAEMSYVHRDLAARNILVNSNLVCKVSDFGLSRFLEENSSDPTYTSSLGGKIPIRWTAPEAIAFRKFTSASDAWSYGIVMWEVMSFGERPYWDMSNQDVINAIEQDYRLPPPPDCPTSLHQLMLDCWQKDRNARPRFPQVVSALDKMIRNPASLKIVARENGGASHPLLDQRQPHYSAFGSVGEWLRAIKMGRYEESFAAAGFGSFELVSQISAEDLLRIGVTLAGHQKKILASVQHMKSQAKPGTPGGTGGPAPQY

DAPK1 (human) = DAPK1 (human) (UniProt P53355)
CDK9 CCNK (human) = CDK9 CCNK (human) (UniProt O75909+P50750)
CLK2 (human) = CLK2 (human) (UniProt P49760)
AURKA (human) = AURKA (human) (UniProt O14965)
MAP4K4 (human) = MAP4K4 (human) (UniProt O95819)
Sequence of MAP4K4 (human) (O95819 whole entry, looked up): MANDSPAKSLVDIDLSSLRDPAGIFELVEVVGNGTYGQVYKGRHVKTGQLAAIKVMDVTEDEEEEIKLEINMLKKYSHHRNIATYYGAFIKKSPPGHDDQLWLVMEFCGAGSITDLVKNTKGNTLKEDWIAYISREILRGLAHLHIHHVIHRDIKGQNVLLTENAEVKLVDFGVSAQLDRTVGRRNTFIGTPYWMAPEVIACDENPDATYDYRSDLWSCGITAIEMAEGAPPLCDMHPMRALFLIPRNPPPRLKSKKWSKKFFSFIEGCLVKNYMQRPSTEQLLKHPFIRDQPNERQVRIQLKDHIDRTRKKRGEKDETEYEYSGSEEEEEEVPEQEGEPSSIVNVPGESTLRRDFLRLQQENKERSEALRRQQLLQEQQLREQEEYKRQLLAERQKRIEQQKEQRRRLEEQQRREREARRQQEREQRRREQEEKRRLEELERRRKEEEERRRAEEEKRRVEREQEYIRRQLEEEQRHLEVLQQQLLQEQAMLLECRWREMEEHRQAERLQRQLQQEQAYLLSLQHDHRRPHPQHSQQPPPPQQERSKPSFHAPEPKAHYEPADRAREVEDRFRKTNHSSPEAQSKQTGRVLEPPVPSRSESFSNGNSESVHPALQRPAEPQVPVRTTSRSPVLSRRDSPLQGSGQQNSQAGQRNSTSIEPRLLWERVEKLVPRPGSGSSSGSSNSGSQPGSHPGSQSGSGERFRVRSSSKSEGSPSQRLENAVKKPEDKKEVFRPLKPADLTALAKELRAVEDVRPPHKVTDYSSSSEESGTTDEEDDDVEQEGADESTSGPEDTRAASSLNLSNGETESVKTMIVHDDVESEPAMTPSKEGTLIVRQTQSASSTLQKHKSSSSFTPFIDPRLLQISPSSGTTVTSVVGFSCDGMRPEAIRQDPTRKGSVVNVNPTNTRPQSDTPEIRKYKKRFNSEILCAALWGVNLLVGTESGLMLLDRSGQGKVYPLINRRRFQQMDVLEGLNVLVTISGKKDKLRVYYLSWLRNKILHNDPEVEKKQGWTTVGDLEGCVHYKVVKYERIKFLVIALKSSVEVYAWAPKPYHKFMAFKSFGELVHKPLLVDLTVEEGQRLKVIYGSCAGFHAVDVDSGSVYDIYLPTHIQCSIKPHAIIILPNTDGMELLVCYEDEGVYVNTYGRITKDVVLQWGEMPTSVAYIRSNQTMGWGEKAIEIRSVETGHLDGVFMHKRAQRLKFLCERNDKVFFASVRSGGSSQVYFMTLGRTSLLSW

MLTK (human) = MLTK (human) (UniProt Q9NYL2)
RPS6KB2 (human) = RPS6KB2 (human) (UniProt Q9UBS0)
Sequence of RPS6KB2 (human) (Q9UBS0 whole entry, looked up): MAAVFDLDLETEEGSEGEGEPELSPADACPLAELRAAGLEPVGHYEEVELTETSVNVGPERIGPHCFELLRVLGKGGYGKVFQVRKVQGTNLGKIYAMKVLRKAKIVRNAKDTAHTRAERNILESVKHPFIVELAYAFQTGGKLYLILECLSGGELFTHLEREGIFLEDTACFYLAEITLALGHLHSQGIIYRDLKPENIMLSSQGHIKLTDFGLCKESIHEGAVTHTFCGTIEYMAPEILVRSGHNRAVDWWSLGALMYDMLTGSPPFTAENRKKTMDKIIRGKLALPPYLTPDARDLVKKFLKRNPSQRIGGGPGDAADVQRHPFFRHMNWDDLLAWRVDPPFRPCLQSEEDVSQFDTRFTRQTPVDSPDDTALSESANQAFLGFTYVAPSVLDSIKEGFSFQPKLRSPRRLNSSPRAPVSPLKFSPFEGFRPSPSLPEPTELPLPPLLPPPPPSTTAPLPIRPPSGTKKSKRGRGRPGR

ULK2 (human) = ULK2 (human) (UniProt Q8IYT8)
MYLK2 (human) = MYLK2 (human) (UniProt Q9H1R3)
CDK7 CCNH MNAT1 (human) = CDK7 CCNH MNAT1 (human) (UniProt P50613+P51948+P51946)
Sequence of CDK7 CCNH MNAT1 (human) (P50613 whole entry, looked up): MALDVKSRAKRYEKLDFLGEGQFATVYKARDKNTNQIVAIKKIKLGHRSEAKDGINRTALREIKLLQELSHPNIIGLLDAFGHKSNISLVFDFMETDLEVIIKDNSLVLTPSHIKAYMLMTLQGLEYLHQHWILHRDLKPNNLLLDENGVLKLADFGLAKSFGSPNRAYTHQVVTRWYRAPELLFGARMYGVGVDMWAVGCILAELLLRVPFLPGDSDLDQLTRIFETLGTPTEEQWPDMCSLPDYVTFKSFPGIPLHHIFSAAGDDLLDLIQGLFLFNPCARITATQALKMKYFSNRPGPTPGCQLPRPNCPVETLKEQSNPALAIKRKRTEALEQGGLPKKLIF
Sequence of CDK7 CCNH MNAT1 (human) (P51946 whole entry, looked up): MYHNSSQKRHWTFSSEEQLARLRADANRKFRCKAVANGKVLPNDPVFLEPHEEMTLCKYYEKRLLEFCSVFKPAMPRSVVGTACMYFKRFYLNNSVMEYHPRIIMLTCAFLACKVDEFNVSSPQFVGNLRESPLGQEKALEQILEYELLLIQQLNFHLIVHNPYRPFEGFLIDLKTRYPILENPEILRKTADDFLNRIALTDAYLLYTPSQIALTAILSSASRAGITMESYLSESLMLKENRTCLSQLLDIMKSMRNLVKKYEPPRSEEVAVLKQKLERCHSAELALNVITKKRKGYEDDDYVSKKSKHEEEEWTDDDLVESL
Sequence of CDK7 CCNH MNAT1 (human) (P51948 whole entry, looked up): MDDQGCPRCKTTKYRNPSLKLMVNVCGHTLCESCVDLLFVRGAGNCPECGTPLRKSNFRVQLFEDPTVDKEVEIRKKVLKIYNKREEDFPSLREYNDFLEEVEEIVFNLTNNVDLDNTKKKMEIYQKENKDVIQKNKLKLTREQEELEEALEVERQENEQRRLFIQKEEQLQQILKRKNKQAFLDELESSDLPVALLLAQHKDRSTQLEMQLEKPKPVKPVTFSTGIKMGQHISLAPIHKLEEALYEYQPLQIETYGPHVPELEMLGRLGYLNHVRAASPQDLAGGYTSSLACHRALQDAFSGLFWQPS

PRKG1 (human) = PRKG1 (human) (UniProt Q13976)
Sequence of PRKG1 (human) (Q13976 whole entry, looked up): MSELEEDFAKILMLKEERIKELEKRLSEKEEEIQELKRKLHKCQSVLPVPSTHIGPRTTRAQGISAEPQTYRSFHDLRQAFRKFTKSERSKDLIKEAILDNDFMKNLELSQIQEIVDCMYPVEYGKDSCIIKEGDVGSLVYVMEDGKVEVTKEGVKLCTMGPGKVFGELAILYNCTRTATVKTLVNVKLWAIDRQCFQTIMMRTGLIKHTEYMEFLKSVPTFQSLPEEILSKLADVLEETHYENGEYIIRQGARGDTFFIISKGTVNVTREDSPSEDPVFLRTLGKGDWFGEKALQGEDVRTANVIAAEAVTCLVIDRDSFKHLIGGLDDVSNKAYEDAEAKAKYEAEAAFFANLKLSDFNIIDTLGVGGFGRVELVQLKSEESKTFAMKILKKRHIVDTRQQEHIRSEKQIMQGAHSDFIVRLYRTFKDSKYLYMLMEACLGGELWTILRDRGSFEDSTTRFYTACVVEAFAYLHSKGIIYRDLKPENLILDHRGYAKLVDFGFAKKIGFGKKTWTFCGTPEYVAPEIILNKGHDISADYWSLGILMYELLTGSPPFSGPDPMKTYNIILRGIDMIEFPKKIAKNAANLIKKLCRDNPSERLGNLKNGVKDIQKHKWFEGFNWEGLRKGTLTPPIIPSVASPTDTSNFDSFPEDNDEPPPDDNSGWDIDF

Cc1cc2ncc(-c3ccccc3)nc2cc1C
residual activity (PRKACA (human)): 108% | residual activity (CAMK1D (human)): 100% | residual activity (FES (human)): 97.3% | residual activity (PAK6 (human)): 97.4% | residual activity (EPHA1 (human)): 99.9% | residual activity (MET (human)): 95.1% | residual activity (GSK3A (human)): 104% | residual activity (SYK (human)): 97.4% | residual activity (NEK11 (human)): 104% | residual activity (MST4 (human)): 97.6% | residual activity (CDK2 CCNE1 (human)): 91.8% | residual activity (CDK6 CCND1 (human)): 87.1% | residual activity (MKNK2 (human)): 94.8% | residual activity (CAMK2B (human)): 101% | residual activity (INSRR (human)): 95.5% | residual activity (PRKCD (human)): 92.3% | residual activity (MYLK (human)): 102% | residual activity (MAPK10 (human)): 103% | residual activity (STK39 (human)): 103% | residual activity (EPHB2 (human)): 96.7% | residual activity (STK33 (human)): 94.1% | residual activity (SGK2 (human)): 101% | residual activity (MINK1 (human)): 91.8% | residual activity (WNK2 (human)): 98.8% | residual activity (PRKD1 (human)): 100% | residual activity (PIM1 (human)): 101% | residual activity (MAPKAPK5 (human)): 95.1% | residual activity (NEK9 (human)): 93.1% | residual activity (ROCK1 (human)): 100% | residual activity (PLK2 (human)): 95% | residual activity (EPHB4 (human)): 95.6% | residual activity (DAPK1 (human)): 88.4% | residual activity (CDK9 CCNK (human)): 101% | residual activity (CLK2 (human)): 102% | residual activity (AURKA (human)): 92.1% | residual activity (MAP4K4 (human)): 85% | residual activity (MLTK (human)): 102% | residual activity (RPS6KB2 (human)): 98.7% | residual activity (ULK2 (human)): 108% | residual activity (MYLK2 (human)): 99.7% | residual activity (CDK7 CCNH MNAT1 (human)): 98.5% | residual activity (PRKG1 (human)): 86.2% and 93.7%
